Data as given in ChEMBL document CHEMBL1201862, “PubChem BioAssay data set” (2004).
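A five-concentration, 48-hour dose response in 96-well plates underlies each endpoint, interpolated linearly between surrounding concentrations. Abbreviation: GI50, concentration required for 50% inhibition of growth.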 Calls of active or inactive are those of the source. Rule as the data show it: active = GI50 up to about 1.1 µM and inactive = higher.

Legend:
Assay in all cases: DTP human tumour cell line panel, 48 h
A498 = test system: A498
CAKI-1 = test system: CAKI-1
DU-145 = test system: DU-145
EKVX = test system: EKVX
HT-29 = test system: HT-29
IGROV-1 = test system: IGROV-1
K562 = test system: K562
LOX IMVI = test system: LOX IMVI
MDA-N = test system: MDA-N
MOLT-4 = test system: MOLT-4
Malme-3M = test system: Malme-3M
NCI-H226 = test system: NCI-H226
NCI-H23 = test system: NCI-H23
NCI-H522 = test system: NCI-H522
OVCAR-4 = test system: OVCAR-4
OVCAR-8 = test system: OVCAR-8
RPMI-8226 = test system: RPMI-8226
SF-295 = test system: SF-295
SK-MEL-28 = test system: SK-MEL-28
SN12C = test system: SN12C

Structure (SMILES) | GI50 (A498) | GI50 (CAKI-1) | GI50 (DU-145) | GI50 (EKVX) | GI50 (HT-29) | GI50 (IGROV-1) | GI50 (K562) | GI50 (LOX IMVI) | GI50 (MDA-N) | GI50 (MOLT-4) | GI50 (Malme-3M) | GI50 (NCI-H226) | GI50 (NCI-H23) | GI50 (NCI-H522) | GI50 (OVCAR-4) | GI50 (OVCAR-8) | GI50 (RPMI-8226) | GI50 (SF-295) | GI50 (SK-MEL-28) | GI50 (SN12C)
CCOP(=O)(Nc1ccc2oc(=O)c3ccccc3c2c1)OCC | 27.5 µM (inactive) | 26.2 µM (inactive) | 92.7 µM (inactive) | 46 µM (inactive) | 63.2 µM (inactive) | 48 µM (inactive) | 38.1 µM (inactive) | 47.5 µM (inactive) | 97.5 µM (inactive) | 54.8 µM (inactive) | > 100 µM (inactive) | 41 µM (inactive) | > 100 µM (inactive) | 68.9 µM (inactive) | 60.1 µM (inactive) | > 100 µM (inactive) | 21.2 µM (inactive) | > 100 µM (inactive) | > 100 µM (inactive) | > 100 µM (inactive)
Nc1nnnn1CCO | > 100 µM (inactive) | > 100 µM (inactive) | > 100 µM (inactive) | > 100 µM (inactive) | > 100 µM (inactive) | > 100 µM (inactive) | > 100 µM (inactive) | > 100 µM (inactive) | > 100 µM (inactive) |  | > 100 µM (inactive) | > 100 µM (inactive) | > 100 µM (inactive) | > 100 µM (inactive) | > 100 µM (inactive) | > 100 µM (inactive) | > 100 µM (inactive) | > 100 µM (inactive) | > 100 µM (inactive) | > 100 µM (inactive)
CC1N(C)C(=O)OC12CCN(CCCC(=O)c1ccc(F)cc1)CC2 (stereo not given) | > 100 µM (inactive) | > 100 µM (inactive) | > 100 µM (inactive) |  | > 100 µM (inactive) | > 100 µM (inactive) | > 100 µM (inactive) | > 100 µM (inactive) | > 100 µM (inactive) | > 100 µM (inactive) | > 100 µM (inactive) | > 100 µM (inactive) | > 100 µM (inactive) | > 100 µM (inactive) |  | > 100 µM (inactive) | > 100 µM (inactive) | > 100 µM (inactive) | > 100 µM (inactive) | > 100 µM (inactive)
Cc1nn(C(=O)Cc2ccccc2)c2c1C(c1ccc(N(C)C)cc1)SC(=N)N2 (stereo not given) | > 100 µM (inactive) | > 100 µM (inactive) | > 100 µM (inactive) | > 100 µM (inactive) | > 100 µM (inactive) | > 100 µM (inactive) |  | > 100 µM (inactive) | > 100 µM (inactive) | > 100 µM (inactive) | > 100 µM (inactive) | > 100 µM (inactive) | > 100 µM (inactive) | > 100 µM (inactive) |  | > 100 µM (inactive) | > 100 µM (inactive) | 48.8 µM (inactive) | > 100 µM (inactive) | > 100 µM (inactive)
CCOC(=O)/C(=C/Nc1c(C)n(C)n(-c2ccccc2)c1=O)C(C)=O | > 100 µM (inactive) | > 100 µM (inactive) | > 100 µM (inactive) | > 100 µM (inactive) |  | > 100 µM (inactive) | > 100 µM (inactive) | > 100 µM (inactive) | > 100 µM (inactive) | > 100 µM (inactive) | > 100 µM (inactive) | > 100 µM (inactive) | > 100 µM (inactive) | > 100 µM (inactive) | > 100 µM (inactive) | > 100 µM (inactive) | > 100 µM (inactive) | > 100 µM (inactive) |  | > 100 µM (inactive)
Cc1cccc2c(N)c3cccc(C(=O)NCC[N+](C)(C)Cc4ccc([N+](=O)[O-])n4C)c3nc12 | 10.4 µM (inactive) | 7.1 µM (inactive) | 18.8 µM (inactive) | 27.6 µM (inactive) | 9.33 µM (inactive) | 9.53 µM (inactive) | 11.5 µM (inactive) | 18 µM (inactive) | 41.3 µM (inactive) | 1.66 µM (inactive) | 15.2 µM (inactive) | 6.5 µM (inactive) | 13.2 µM (inactive) | 8.65 µM (inactive) | 46.8 µM (inactive) | 18.7 µM (inactive) | 12.1 µM (inactive) | 17.6 µM (inactive) | 43.8 µM (inactive) | 3.07 µM (inactive)
CC(C)c1ccc(C2NC(S)=NC3=C2c2ccccc2C3=O)cc1 (stereo not given) | 36.7 µM (inactive) | 22.8 µM (inactive) | 16.7 µM (inactive) | 33.4 µM (inactive) | 25.5 µM (inactive) | 27 µM (inactive) | 22.6 µM (inactive) | 20.6 µM (inactive) | 5.31 µM (inactive) | 24.4 µM (inactive) | 26.2 µM (inactive) | 34.4 µM (inactive) | 23.6 µM (inactive) | 17.3 µM (inactive) | 21.6 µM (inactive) | 32.1 µM (inactive) | 23.2 µM (inactive) | 20.5 µM (inactive) | 21.1 µM (inactive) | 24.7 µM (inactive)
C1CCNCC1.S=C(S)N1CCCCC1 | 36.7 µM (inactive) | 33.4 µM (inactive) | 140 µM (inactive) | 111 µM (inactive) |  | 5.96 µM (inactive) | 0.601 µM (active) | 60.5 µM (inactive) | 13.1 µM (inactive) |  | 19.1 µM (inactive) | 192 µM (inactive) | 62.2 µM (inactive) | 0.276 µM (active) |  | 61.1 µM (inactive) | 3.75 µM (inactive) | 99.8 µM (inactive) | 48.6 µM (inactive) | 64.6 µM (inactive)
NS(=O)(=O)c1ccc(NC(=S)NC(=O)Nc2ccc(Cl)c(Cl)c2)cc1 | 1.07 µM (active) | 18.7 µM (inactive) | 15.5 µM (inactive) | 23.7 µM (inactive) | 11.5 µM (inactive) | 19.3 µM (inactive) | 4.55 µM (inactive) | 6.17 µM (inactive) | 14.6 µM (inactive) | 7.6 µM (inactive) | 15.2 µM (inactive) | 20.4 µM (inactive) | 16 µM (inactive) | 16 µM (inactive) | 14.9 µM (inactive) | 18.4 µM (inactive) | 19.6 µM (inactive) | 13.4 µM (inactive) | 17.8 µM (inactive) | 15.8 µM (inactive)
CC(=O)N(O)c1ccc(-c2nc3ccccc3s2)cc1 | 35.6 µM (inactive) | 95.1 µM (inactive) | > 100 µM (inactive) |  | 46.6 µM (inactive) | 32.9 µM (inactive) | > 100 µM (inactive) | 63.4 µM (inactive) | 77.6 µM (inactive) | 48.6 µM (inactive) | 31.3 µM (inactive) | 24.2 µM (inactive) | > 100 µM (inactive) | 24.5 µM (inactive) | 28.2 µM (inactive) | 40.9 µM (inactive) | 15 µM (inactive) | 45.2 µM (inactive) | 80.7 µM (inactive) | > 100 µM (inactive)
CNC(=O)C(C)NC(=O)C(Cc1ccccc1)NC(=O)OC(C)(C)C (stereo not given) | > 100 µM (inactive) | > 100 µM (inactive) | > 100 µM (inactive) | > 100 µM (inactive) | > 100 µM (inactive) | > 100 µM (inactive) | > 100 µM (inactive) | > 100 µM (inactive) | > 100 µM (inactive) | > 100 µM (inactive) | > 100 µM (inactive) | > 100 µM (inactive) | > 100 µM (inactive) | 51.2 µM (inactive) |  | > 100 µM (inactive) | > 100 µM (inactive) | > 100 µM (inactive) | > 100 µM (inactive) | > 100 µM (inactive)
C=C(Cl)C(C)(Cl)CCC(Br)C(C)(C)Cl (stereo not given) | 41.5 µM (inactive) | 25.4 µM (inactive) | 20.9 µM (inactive) | 47.2 µM (inactive) | 15.8 µM (inactive) | 28.8 µM (inactive) | 33.9 µM (inactive) | 13.3 µM (inactive) | 15.8 µM (inactive) | 28.4 µM (inactive) | 17.1 µM (inactive) | 41.8 µM (inactive) | 19.1 µM (inactive) | 11.2 µM (inactive) | 16.2 µM (inactive) |  | 13.2 µM (inactive) | 29.1 µM (inactive) | 21.2 µM (inactive) | 16.7 µM (inactive)
C=C(C)[C@@H]1CCC2=C[C@H](OC2=O)[C@@]2(C)C[C@@H]2C2=CC(C)=C(O2)[C@H]1O | > 75 µM (inactive) | 21.5 µM (inactive) | 37.3 µM (inactive) | 36.8 µM (inactive) | 23 µM (inactive) | 21.3 µM (inactive) | > 75 µM (inactive) | 27.1 µM (inactive) | 23.4 µM (inactive) | 24.8 µM (inactive) | 48.9 µM (inactive) | 27.7 µM (inactive) | 25.9 µM (inactive) | 15.1 µM (inactive) | 42.2 µM (inactive) | 25.1 µM (inactive) |  | 33.3 µM (inactive) | 46 µM (inactive) | 25.5 µM (inactive)
CC1SCc2nc3ccccc3n21 (stereo not given) | > 100 µM (inactive) | > 100 µM (inactive) | > 100 µM (inactive) | > 100 µM (inactive) | > 100 µM (inactive) | > 100 µM (inactive) | > 100 µM (inactive) | > 100 µM (inactive) | > 100 µM (inactive) | > 100 µM (inactive) | > 100 µM (inactive) | 3.58 µM (inactive) | > 100 µM (inactive) | > 100 µM (inactive) | > 100 µM (inactive) | > 100 µM (inactive) | > 100 µM (inactive) | > 100 µM (inactive) | > 100 µM (inactive) | > 100 µM (inactive)
CN(C)CCOC(=O)c1ccc(N)cc1 | 38.4 µM (inactive) | 32.3 µM (inactive) | 71.6 µM (inactive) |  | 27 µM (inactive) | 22.4 µM (inactive) | 30 µM (inactive) | 28.7 µM (inactive) | 36.6 µM (inactive) | 28.2 µM (inactive) | 49.8 µM (inactive) | 21.5 µM (inactive) | 74.1 µM (inactive) | 20.4 µM (inactive) | 31.6 µM (inactive) | 70.8 µM (inactive) | 24.4 µM (inactive) | 47.8 µM (inactive) | 29.1 µM (inactive) | 48.2 µM (inactive)
